# Source: ChEMBL document CHEMBL1201862, “PubChem BioAssay data set” (2004)
# The source made the active and inactive calls.
# Key:
# [1] = reduction of Shn3 3'UTR-driven luciferase in osteoblasts – cell-based, Clone20 osteoblasts, firefly luciferase, cherry-picked, dose response (AID 624132); format: functional;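 further: firefly luciferase luminescence from reporter carrying the Shn3 3'UTR in osteoblasts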
# [2] = loss of viability in HepG2 cells – cell-based, CellTiter-Glo, cherry-picked, cytotoxicity control for Shn3 inhibitor project, dose response (AID 624134); format: functional
# [3] = non-specific 3'UTR reporter inhibition in Clone20-Shn3RL – cell-based, Renilla luciferase, cherry-picked, counter-screen for Shn3 inhibitor project, dose response (AID 624133); format: functional
# [4] = target: T1, Short transient receptor potential channel 4 (Mus musculus, UniProt Q9QUQ5); experiment: block of DAMGO-driven TRPC4 calcium entry – cell-based, HEK293 TRPC4/mu-opioid, Fluo-4 calcium, dose response (AID 434942); format: functional;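 further: potency of inhibitors blocking the TRPC4 calcium response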
# T1 sequence (Q9QUQ5 whole entry): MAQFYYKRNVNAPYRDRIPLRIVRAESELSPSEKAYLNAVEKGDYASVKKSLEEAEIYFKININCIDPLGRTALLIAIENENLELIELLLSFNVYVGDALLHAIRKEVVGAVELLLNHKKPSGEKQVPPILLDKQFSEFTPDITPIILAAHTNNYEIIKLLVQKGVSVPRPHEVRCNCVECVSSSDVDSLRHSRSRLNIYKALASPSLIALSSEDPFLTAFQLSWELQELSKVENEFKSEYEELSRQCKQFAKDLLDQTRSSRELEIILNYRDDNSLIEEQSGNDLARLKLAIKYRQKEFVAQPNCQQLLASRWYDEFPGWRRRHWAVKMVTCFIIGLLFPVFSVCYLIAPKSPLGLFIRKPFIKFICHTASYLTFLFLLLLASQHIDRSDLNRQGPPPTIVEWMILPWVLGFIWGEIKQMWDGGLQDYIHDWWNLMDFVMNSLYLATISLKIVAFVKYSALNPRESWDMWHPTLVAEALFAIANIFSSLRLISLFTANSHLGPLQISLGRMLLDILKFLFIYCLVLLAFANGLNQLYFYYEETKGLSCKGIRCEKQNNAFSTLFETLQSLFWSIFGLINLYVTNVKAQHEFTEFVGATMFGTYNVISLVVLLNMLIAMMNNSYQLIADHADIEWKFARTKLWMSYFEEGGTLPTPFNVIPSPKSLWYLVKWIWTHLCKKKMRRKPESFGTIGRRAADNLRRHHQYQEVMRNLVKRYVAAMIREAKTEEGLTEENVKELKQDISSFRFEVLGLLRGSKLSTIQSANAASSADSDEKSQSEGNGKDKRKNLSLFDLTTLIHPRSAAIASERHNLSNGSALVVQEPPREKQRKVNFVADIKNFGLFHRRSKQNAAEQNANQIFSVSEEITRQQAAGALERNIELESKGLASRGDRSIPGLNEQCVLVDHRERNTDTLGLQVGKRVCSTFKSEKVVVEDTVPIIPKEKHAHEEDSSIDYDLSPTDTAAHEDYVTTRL
# [5] = THP-1 cell cytotoxicity, dose response, cytotoxicity control for non-replicating M. tuberculosis project (AID 489025); format: functional
# [6] = tested on: HEK293; experiment: EBV LMP1 TES2 canonical NF-kB signalling blockers – cell-based, HEK293, luciferase, cherry-pick, dose response (AID 588343); format: functional; settings: Homo sapiens
# [7] = target: T2, RNA-binding protein pos-1 (Caenorhabditis elegans, UniProt G5EF15); experiment: disruptors of C. elegans POS-1 RNA interaction – biochemical, fluorescence polarization, dose response (AID 1964);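 further: purified POS-1 fused to maltose binding protein made in E. coli; potency of compounds blocking POS-1 binding to fluorescent RNA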
# T2 sequence (G5EF15 whole entry): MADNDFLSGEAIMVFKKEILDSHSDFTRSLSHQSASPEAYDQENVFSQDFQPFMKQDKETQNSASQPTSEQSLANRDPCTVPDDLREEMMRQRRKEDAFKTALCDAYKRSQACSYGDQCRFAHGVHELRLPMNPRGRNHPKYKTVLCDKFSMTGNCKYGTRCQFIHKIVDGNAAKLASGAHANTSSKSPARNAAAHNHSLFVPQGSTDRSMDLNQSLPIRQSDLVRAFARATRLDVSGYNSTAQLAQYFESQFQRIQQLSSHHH
# [8] = target: T3, Zinc finger protein mex-5 (Caenorhabditis elegans, UniProt Q9XUB2); experiment: potency of MEX-5 RNA-binding blockers – biochemical, C. elegans, fluorescence polarization, dose response (AID 1960)
# T3 sequence (Q9XUB2 whole entry): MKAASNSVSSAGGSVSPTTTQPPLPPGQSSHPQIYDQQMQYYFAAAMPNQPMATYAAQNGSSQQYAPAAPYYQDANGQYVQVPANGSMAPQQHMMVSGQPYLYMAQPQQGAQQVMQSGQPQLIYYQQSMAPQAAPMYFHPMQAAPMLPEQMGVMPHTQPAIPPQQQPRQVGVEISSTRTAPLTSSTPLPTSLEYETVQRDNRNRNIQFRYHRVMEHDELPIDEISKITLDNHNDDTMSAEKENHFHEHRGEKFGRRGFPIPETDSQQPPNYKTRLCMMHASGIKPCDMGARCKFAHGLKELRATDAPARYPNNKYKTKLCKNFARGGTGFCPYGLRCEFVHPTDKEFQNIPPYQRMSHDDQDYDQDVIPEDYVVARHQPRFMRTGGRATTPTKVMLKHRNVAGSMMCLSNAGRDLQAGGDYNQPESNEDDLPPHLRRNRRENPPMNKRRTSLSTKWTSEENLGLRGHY
# [9] = target: Genome polyprotein (dengue virus type 2, UniProt P29990); experiment: flavivirus cap methylation enzyme inhibition – biochemical, confirmation dose response, primary screen (AID 588689); format: functional
# Genome polyprotein, sequence (P29990 2492-3391 limits assumed): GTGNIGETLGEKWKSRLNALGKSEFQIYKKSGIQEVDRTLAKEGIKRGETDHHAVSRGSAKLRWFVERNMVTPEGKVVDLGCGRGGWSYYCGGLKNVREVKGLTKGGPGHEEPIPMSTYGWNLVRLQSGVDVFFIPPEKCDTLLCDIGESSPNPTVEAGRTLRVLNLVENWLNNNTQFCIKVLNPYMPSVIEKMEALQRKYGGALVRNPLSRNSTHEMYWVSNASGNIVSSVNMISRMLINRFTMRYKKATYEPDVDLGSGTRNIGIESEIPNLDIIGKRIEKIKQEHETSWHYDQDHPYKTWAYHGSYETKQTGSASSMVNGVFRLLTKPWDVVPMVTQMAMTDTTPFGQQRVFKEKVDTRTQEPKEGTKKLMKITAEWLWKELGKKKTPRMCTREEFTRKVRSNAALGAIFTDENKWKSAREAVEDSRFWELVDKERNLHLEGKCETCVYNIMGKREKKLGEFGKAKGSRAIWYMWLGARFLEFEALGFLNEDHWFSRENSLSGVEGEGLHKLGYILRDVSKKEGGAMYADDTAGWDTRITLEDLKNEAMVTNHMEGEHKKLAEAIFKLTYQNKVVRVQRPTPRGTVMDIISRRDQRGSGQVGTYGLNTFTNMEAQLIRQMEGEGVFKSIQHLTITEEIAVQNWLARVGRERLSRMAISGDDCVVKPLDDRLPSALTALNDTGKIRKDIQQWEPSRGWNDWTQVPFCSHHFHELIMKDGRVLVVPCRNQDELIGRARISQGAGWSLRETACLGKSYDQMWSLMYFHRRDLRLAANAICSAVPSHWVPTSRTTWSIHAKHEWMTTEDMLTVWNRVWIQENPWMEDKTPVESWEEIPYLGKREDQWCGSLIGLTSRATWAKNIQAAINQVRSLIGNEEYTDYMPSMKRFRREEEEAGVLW
# [10] = blockers of HIV-1 envelope-mediated cell-cell fusion – cherry-pick, dose response (AID 652057); format: functional, cell-based
# [11] = HIV-1 AD8 envelope cell-cell fusion blockers – cherry-pick, dose response (AID 652062); format: functional, cell-based;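 further: luciferase signal from cell-cell fusion driven by HIV-1 clade B AD8 Env; potency is for inhibitors of fusion seen as a drop in luminescence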
# [12] = tested on: Streptococcus sp. 'group A'; experiment: Streptococcus pyogenes SK(-)GAS viability under kanamycin – luminescence, BacTiterGlo, confirmation, counter-screen for streptokinase expression inhibitor project, dose response (AID 1900); format: functional, organism-based
# [13] = target: T4, Streptokinase A (Streptococcus pyogenes serotype M1, UniProt P10520); experiment: viability-normalized secreted streptokinase activity reduction – plasminogen activation absorbance, OD405, dose response (AID 1914); format: functional, Streptococcus pyogenes M1 GAS;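 further: secreted streptokinase activity via plasminogen activation per viability signal from cell pellet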
# T4 sequence (P10520 whole entry): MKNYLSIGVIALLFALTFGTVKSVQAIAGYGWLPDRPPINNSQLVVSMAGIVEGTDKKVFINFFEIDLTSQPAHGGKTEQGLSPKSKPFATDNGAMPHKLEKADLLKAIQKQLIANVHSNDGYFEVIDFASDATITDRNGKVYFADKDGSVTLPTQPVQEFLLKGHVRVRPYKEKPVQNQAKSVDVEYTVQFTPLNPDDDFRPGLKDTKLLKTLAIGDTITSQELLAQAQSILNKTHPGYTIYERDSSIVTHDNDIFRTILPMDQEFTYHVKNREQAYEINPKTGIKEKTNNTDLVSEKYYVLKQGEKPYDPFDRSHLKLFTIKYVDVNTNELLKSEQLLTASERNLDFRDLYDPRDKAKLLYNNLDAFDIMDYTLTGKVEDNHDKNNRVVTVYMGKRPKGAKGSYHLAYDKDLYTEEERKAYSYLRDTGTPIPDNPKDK
# [14] = tested on: Streptococcus; experiment: GAS UMAA2166 growth inhibition – luminescence, BacTiterGlo, counter-screen for streptokinase expression inhibitor project, dose response (AID 1915); format: functional, organism-based;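 further: potency for reduction of bacterial viability or growth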
# [15] = viability of PTEN-deleted HCT116 cells – cell-based, HCT116 PTEN knockout, dose response (AID 1047); format: functional;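 further: HCT116 colon tumor cells with PTEN knocked out; cells exposed to compound for 60 hours before readout; potency for loss of cell viability measured by luminescence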
# [16] = viability of HCT116 lacking mutant beta-catenin – cell-based, human colon tumor, dose response (AID 1045); format: functional;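 further: HCT116 colon tumor cells with beta catenin knocked out; cells exposed to compound for 60 hours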
# [17] = tested on: BJ; experiment: BJ-TERT-LT-ST fibroblast viability loss – cell-based, RAS-independent, luminescence, dose response (AID 1935); format: functional; settings: Homo sapiens;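 further: BJ fibroblasts immortalized with TERT plus LT and ST oncogenes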
# [18] = DRD fibroblast viability loss – cell-based, non-viral oncogenic, luminescence, dose response (AID 1934); format: functional; settings: Homo sapiens
# [19] = tested on: BJ; experiment: cells; format: functional, cell-based; settings: Homo sapiens
# [20] = tested on: BJ; experiment: BJ-TERT fibroblast viability loss – cell-based, RAS-independent, luminescence, dose response (AID 1933); format: functional; settings: Homo sapiens
# [21] = target: T5, Polyadenylate-binding protein 1 (Homo sapiens, UniProt P11940); experiment: MLLE domain peptide-binding blockers, IC50 – biochemical, fluorescence polarization, FITC-PAM2 peptide, dose response (AID 602259); format: functional; settings: read-out: IC50_Mean
# T5 sequence (P11940 whole entry, the tested form may be a part): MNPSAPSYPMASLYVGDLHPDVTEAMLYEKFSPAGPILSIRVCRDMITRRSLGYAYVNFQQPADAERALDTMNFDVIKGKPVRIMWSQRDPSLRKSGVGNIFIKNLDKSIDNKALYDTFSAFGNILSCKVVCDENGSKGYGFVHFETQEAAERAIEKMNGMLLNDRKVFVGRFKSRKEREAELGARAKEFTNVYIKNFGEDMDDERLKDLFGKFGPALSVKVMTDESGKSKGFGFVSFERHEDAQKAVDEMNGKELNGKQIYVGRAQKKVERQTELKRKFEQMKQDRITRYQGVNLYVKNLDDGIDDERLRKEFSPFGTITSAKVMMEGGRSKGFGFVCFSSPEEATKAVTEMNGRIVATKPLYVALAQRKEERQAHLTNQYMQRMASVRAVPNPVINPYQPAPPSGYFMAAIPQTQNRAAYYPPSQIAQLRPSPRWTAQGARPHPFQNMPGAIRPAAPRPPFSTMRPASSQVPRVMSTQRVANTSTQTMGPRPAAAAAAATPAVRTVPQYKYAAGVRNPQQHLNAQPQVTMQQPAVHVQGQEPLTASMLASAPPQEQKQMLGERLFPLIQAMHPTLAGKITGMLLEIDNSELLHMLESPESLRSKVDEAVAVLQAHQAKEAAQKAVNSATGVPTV
# [22] = target: T5, Polyadenylate-binding protein 1; experiment: MLLE binding blockers, Cy5 peptide tracer – biochemical, fluorescence polarization, Cy5-PAM2 peptide, secondary, miRNA deadenylation inhibitor project, dose response (AID 602260); format: functional; settings: read-out: IC50_Mean
# [23] = target: Paired box protein Pax-8 (Homo sapiens, UniProt Q06710); experiment: PAX8 transcriptional activity inhibition in RMG-I – RMG-I cells, luciferase, cherry-pick, dose response (AID 687027); format: functional, cell-based;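 further: luciferase reporter driven by Pax8 target thyroperoxidase promoter measured by SteadyGlo luminescence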
# Paired box protein Pax-8, sequence (Q06710 whole entry): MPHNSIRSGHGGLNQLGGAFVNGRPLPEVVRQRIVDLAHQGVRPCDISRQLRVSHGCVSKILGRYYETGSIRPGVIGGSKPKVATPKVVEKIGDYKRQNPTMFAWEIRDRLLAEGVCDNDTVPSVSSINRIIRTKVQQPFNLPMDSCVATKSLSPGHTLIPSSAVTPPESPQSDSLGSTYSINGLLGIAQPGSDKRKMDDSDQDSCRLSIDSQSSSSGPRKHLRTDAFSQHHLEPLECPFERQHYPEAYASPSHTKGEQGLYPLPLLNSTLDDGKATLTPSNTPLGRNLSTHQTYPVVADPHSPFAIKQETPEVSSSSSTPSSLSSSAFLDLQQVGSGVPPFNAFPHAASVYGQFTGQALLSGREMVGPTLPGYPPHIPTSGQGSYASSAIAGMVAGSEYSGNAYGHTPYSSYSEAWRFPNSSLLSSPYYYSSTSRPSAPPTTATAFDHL
# [24] = Trypanosoma cruzi growth suppression in host cells – NIH3T3 host cells, beta-gal luminescence, confirmation (AID 2044); format: functional, cell-based;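 further: intracellular parasites grown in NIH/3T3 mouse fibroblasts as host cells; luminescent beta-galactosidase reporter signal from transgenic T. cruzi replicating inside host cells; inhibitors lower the luminescence signal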
# [25] = NIH3T3 cell viability loss – ATP luminescence, mouse fibroblasts, counter-screen, dose response (AID 2010); format: functional, cell-based;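 further: cells exposed to compound for about 90 hours before reading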
structure (smiles),measurement,setting,value
CC(=O)Nc1cccc(NC(=O)CSc2ncc(-c3ccc(Cl)cc3)n2Cc2ccco2)c1,AC50,[1],4.95 µM (active)
same,AC50,[2],60.2 µM (active)
same,AC50,[3],10.7 µM (active)
Cc1cccn2cc(-c3c[nH]c4ccccc34)nc12,EC50,[4],5.96 µM (active)
Cc1ccc(CNC(C)c2ccccc2)cc1 (stereo unspecified),EC50,[4],6.68 µM (active)
Cc1nc(Cl)nc(N(C)c2ccccc2)c1[N+](=O)[O-],EC50,[4],13.3 µM (active)
same,CC50,[5],22.9 µM (active)
O=C(NCc1cccc(Cl)c1)c1cc(COc2ccc3ncccc3c2)on1,AC50,[1],3.05 µM (active)
same,AC50,[2],38.7 µM (active)
same,AC50,[3],14.8 µM (active)
Cc1c(NC(=O)c2cc(-c3cccs3)nc3ccccc23)c(=O)n(-c2ccccc2)n1C,AC50,[6],> 350 µM (inactive)
O=C(O)c1cccc(-n2cccc2C=C2C(=O)c3ccccc3C2=O)c1,EC50,[7],37 µM (active)
same,EC50,[8],48.5 µM (active)
Cc1cccc2nc(CSc3ccc(Cl)cc3)cn12,EC50,[4],4.22 µM (active)
COc1cccc(/C=C2/C(=O)NN(c3ccc(C)c(C)c3)C2=O)c1,IC50,[9],> 100 µM (active)
Cc1cc2ncn(S(=O)(=O)N3CCCCC3)c2cc1C,AC50,[10],5.54 µM (active)
same,AC50,[11],60.6 µM (active)
N=c1c(S(=O)(=O)c2ccccc2)cc2c(=O)n3ccccc3nc2n1Cc1cccnc1,EC50,[7],68.1 µM (inconclusive)
same,EC50,[8],6.91 µM (inconclusive)
Brc1cc2c(cc1C1Nc3ccccc3C3C=CCC31)OCO2 (stereo unspecified),EC50,[7],> 300 µM (not active)
same,EC50,[12],7.1 µM (active)
same,EC50,[8],> 300 µM (not active)
same,EC50,[13],2.55 µM (active)
same,EC50,[14],25.4 µM (active)
N#Cc1c(SC(C(=O)O)c2ccccc2)nc2c(c1-c1cccs1)CCCC2 (stereo unspecified),IC50,[9],39.2 µM (active)
COc1cc(C(=O)N2CCN(c3ccc(C)cc3C)CC2)cc(OC)c1OC,EC50,[15],2.65 µM (active)
same,EC50,[16],3.45 µM (active)
same,EC50,[17],21.8 µM (inconclusive)
same,EC50,[18],3.97 µM (active)
same,EC50,[19],138 µM (inconclusive)
same,EC50,[20],11.9 µM (active)
O=C(Cc1ccc(Br)cc1)NCc1ccccc1,EC50,[17],45.4 µM (inconclusive)
same,EC50,[18],4.57 µM (active)
same,EC50,[19],56.3 µM (inconclusive)
same,EC50,[20],11.9 µM (active)
CCCSc1nc(N)nc(-c2cccs2)c1C#N,EC50,[4],2.66 µM (active)
Cc1cc(C)c(N2C(=O)NC(=O)/C(=C\NNC(=O)c3ccncc3)C2=O)c(C)c1,EC50,[7],64.7 µM (active)
same,EC50,[8],36.6 µM (active)
Cc1cccc(Cn2c(NCCO)nc3c2c(=O)n(C)c(=O)n3C)c1,AC50,[1],0.528 µM (active)
same,AC50,[2],2.83 µM (active)
same,AC50,[3],2.12 µM (active)
COc1ccc(CN2CCCC(C(=O)c3sccc3C)C2)cc1O (stereo unspecified),EC50,[4],11.9 µM (active)
O=C(NNS(=O)(=O)c1ccc([N+](=O)[O-])cc1)C(=O)Nc1cccc(C(=O)O)c1,EC50,[7],9.52 µM (inconclusive)
same,EC50,[8],12.3 µM (inconclusive)
Nc1c2c(nc3ccccc13)CCC2,EC50,[4],4.22 µM (active)
CC1=CC(=O)C(Sc2ccc(C)cc2)=CC1=O,IC50,[21],> 66 µM (inactive)
same,IC50,[22],> 66 µM (inactive)
same,IC50,[9],14.5 µM (active)
C[C@H](CO)N1C[C@H](C)[C@H](CN(C)S(=O)(=O)c2ccccc2)Oc2ccc(NC(=O)Cc3ccccc3)cc2CC1=O,AC50,[10],< 0.26 µM (active)
same,AC50,[11],< 0.26 µM (active)
COc1ccc(S(=O)(=O)Nc2ccc3c(c2)C(=O)N([C@H](C)CO)C[C@H](C)[C@H](CN(C)S(=O)(=O)c2ccc(F)cc2)OCCCC[C@H](C)O3)cc1,AC50,[23],4.78 µM (active)
C/C(=N\c1ccc(Br)cc1)c1sc2ccccc2c1O,EC50,[7],> 300 µM (not active)
same,EC50,[24],4.08 µM (active)
same,EC50,[8],> 300 µM (inconclusive)
same,EC50,[25],> 60 µM (not active)
Cc1cccc(/C=N/NC(=O)CNc2cccc3ccccc23)n1,AC50,[6],107 µM (active)
